We go through 35 compounds from ChEMBL document CHEMBL1147761, “Novel 1,3-dipropyl-8-(1-heteroarylmethyl-1H-pyrazol-4-yl)-xanthine derivatives as high affinity and selective A2B adenosine receptor antagonists” (Bioorg Med Chem Lett, 2006).

In assay [1] the target is Adenosine receptors; A2b & A3 (Homo sapiens) (UniProt P29275+P0DMS8). Briefly: Selectivity of adenosine A3 receptor over adenosine A2B receptor. It counts as protein assay.
In assay [2] the target is Adenosine A2 receptor (Homo sapiens) (UniProt P29275+P29274). As to the kind of experiment: Selectivity of adenosine A2A receptor over adenosine A2B receptor. It counts as protein assay.
Sequence of Adenosine A2 receptor (Homo sapiens) (P29274 whole entry, looked up, one chain of several): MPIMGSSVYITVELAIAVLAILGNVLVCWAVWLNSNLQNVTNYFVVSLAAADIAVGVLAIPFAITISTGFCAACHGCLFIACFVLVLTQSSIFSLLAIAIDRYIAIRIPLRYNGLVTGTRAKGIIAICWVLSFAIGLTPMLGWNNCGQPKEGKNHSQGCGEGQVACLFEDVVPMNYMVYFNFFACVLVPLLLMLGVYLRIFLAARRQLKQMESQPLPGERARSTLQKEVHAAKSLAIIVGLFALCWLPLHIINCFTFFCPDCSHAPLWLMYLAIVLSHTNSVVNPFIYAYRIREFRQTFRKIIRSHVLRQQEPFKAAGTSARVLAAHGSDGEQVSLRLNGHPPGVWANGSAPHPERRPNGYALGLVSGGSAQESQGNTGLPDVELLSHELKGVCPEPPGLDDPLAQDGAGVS
Assay [3] addresses Adenosine receptors; A1 & A2b (Homo sapiens) (UniProt P30542+P29275). Briefly: Selectivity of adenosine A1 receptor over adenosine A2B receptor. It is filed as protein assay.
For a further assay, the target named is T1, Adenosine receptor A1 (Homo sapiens, UniProt P30542).
T1 sequence (P30542 whole entry): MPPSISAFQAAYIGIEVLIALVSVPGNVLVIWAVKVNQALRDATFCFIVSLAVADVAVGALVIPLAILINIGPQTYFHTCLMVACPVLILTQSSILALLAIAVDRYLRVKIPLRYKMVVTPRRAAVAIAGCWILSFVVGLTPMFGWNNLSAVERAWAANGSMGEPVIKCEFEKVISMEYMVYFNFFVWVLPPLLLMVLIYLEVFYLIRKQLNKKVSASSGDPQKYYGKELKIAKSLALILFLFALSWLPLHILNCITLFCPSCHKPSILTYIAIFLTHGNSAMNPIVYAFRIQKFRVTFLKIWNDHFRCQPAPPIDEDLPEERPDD
As to the kind of experiment: Displacement of [3H]CPX from Adenosine A1 receptor expressed in CHO cells. It is filed as cell-based. (In general: Loss of bound radioactivity is the signal in a displacement assay; it reports binding, not function.)

In another assay the target is Adenosine receptor A2a (Homo sapiens, UniProt P29274). As to the kind of experiment: Displacement of [3H]ZM-241385 from Adenosine A2A receptor expressed in HEK cells. It counts as cell-based, HEK293.
Sequence of Adenosine receptor A2a (P29274 whole entry): as the sequence (P29274 whole entry, looked up, one chain of several) above
In the next assay the target is T2, Adenosine receptor A3 (Homo sapiens, UniProt P0DMS8).
T2 sequence (P0DMS8 whole entry): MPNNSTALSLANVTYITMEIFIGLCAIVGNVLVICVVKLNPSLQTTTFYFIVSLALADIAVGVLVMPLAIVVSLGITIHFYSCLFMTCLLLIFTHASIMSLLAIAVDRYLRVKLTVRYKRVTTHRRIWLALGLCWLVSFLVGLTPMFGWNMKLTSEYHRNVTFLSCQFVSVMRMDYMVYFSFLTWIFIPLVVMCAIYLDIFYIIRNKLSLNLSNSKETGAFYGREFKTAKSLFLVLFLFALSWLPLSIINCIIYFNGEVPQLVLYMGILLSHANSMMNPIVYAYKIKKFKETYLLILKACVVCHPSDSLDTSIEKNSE
Briefly: Displacement of [125I]AB-MECA from Adenosine A3 receptor expressed in CHO cells. It is filed as cell-based.

A further assay concerns the target T3, Adenosine receptor A2b (Homo sapiens, UniProt P29275).
T3 sequence (P29275 whole entry): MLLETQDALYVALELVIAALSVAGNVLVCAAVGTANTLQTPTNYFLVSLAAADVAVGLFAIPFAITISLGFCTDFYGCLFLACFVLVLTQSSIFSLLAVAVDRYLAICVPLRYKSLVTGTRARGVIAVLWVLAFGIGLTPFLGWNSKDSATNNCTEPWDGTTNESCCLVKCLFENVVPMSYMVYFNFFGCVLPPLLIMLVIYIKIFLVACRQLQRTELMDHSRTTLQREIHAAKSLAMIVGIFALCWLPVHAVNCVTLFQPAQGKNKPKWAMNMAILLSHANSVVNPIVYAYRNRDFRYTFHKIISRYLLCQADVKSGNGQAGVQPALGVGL
As to the kind of experiment: Displacement of [3H]ZM-241385 from Adenosine A2B receptor expressed in HEK cells. It counts as cell-based, HEK293.

The structures appear in SMILES notation. pKi: −log10 of the molar value.

Take `CCCn1c(=O)c2nc(-c3cnn(Cc4noc(-c5ccc(C#N)cc5)n4)c3)[nH]c2n(CCC)c1=O`: the values for the Ratio Ki in assay [1], in assay [2] and in assay [3] were 45, over 357 and 40, respectively.
`CCCn1c(=O)c2[nH]c(-c3cnn(Cc4nc(-c5ccccc5OC)no4)c3)nc2n(CCC)c1=O`: the pKi – broadly, the Ki on a negative log10 scale, so that one unit is a factor of ten – at Adenosine receptor A1 is 5.72; on Adenosine receptor A2a, 5.80; on Adenosine receptor A3, 6.39; at Adenosine receptor A2b, 7.09.
`CCCn1c(=O)c2[nH]c(-c3cnn(Cc4nc(-c5cccc(Cl)c5)no4)c3)nc2n(CCC)c1=O`: the pKi is 6.19 on Adenosine receptor A1, under 5.30 at Adenosine receptor A2a, 6.31 on Adenosine receptor A3 and 7.49 on Adenosine receptor A2b.
On to `CCCn1c(=O)c2[nH]c(-c3cnn(Cc4cc(-c5ccc(OC)cc5)on4)c3)nc2n(CCC)c1=O`, for which the pKi at Adenosine receptor A1 was 5.70; at Adenosine receptor A2a, under 5.30; on Adenosine receptor A3, 5.52; at Adenosine receptor A2b, 7.20.
On the same counts, the results for `CCCn1c(=O)c2[nH]c(-c3cnn(Cc4nc(-c5cccc(C)c5)no4)c3)nc2n(CCC)c1=O` are 5.85, under 5.30, 6.01 and 6.89.
Consider `CCCn1c(=O)c2[nH]c(-c3cnn(Cc4nc(-c5ccc(C)cc5)no4)c3)nc2n(CCC)c1=O`, for which the pKi at Adenosine receptor A1 is 5.59; on Adenosine receptor A2a, 5.52; on Adenosine receptor A3 it was 5.06; at Adenosine receptor A2b, 7.27.
Consider `CCCn1c(=O)c2nc(-c3cnn(Cc4nc(-c5ccc(C)cc5)no4)c3)[nH]c2n(CCC)c1=O`, for which the Ratio Ki in assay [1] is 160; in assay [2], 55; in assay [3], 48.
For the compound `CCCn1c(=O)c2nc(-c3cnn(Cc4cc(-c5ccc(C(F)(F)F)cc5)on4)c3)[nH]c2n(CCC)c1=O`, the Ratio Ki in assay [1] amounted to 25; in assay [2], 35; in assay [3], 48.
As for `CCCn1c(=O)c2[nH]c(-c3cnn(Cc4noc(-c5ccc(C#N)cc5)n4)c3)nc2n(CCC)c1=O`, the pKi on Adenosine receptor A1 is 6.24; at Adenosine receptor A2a, under 5.30; on Adenosine receptor A3 it was 6.19; on Adenosine receptor A2b it was 7.85.
Take `CCCn1c(=O)c2[nH]c(-c3cnn(Cc4noc(-c5cccc(OC)c5)n4)c3)nc2n(CCC)c1=O`: the negative-log Ki (pKi) on Adenosine receptor A1 is 6.09; on Adenosine receptor A2a, under 5.30; on Adenosine receptor A3, 5.70; at Adenosine receptor A2b, 6.87.
Take `CCCn1c(=O)c2nc(-c3cnn(Cc4noc(-c5ccccc5Cl)n4)c3)[nH]c2n(CCC)c1=O`: the Ratio Ki in assay [1] is 9; in assay [2] it was 65; in assay [3], 16.
The matching figures for `CCCn1c(=O)c2nc(-c3cnn(Cc4nc(-c5ccc(C(F)(F)F)cc5)no4)c3)[nH]c2n(CCC)c1=O`: 23, over 90 and 60.
In the case of `CCCn1c(=O)c2[nH]c(-c3cnn(Cc4cc(-c5ccccc5OC)on4)c3)nc2n(CCC)c1=O`, the negative-log Ki (pKi) on Adenosine receptor A1 is 5.48; on Adenosine receptor A2a, under 5.30; at Adenosine receptor A3, 5.31; on Adenosine receptor A2b it was 6.71.
In the case of `CCCn1c(=O)c2nc(-c3cnn(Cc4nc(-c5cccc(C)c5)no4)c3)[nH]c2n(CCC)c1=O`, the Ratio Ki in assay [1] was 8; in assay [2] it was over 39; in assay [3], 11.
For the compound `CCCn1c(=O)c2nc(-c3cnn(Cc4cc(-c5ccc(Cl)cc5)on4)c3)[nH]c2n(CCC)c1=O`, the figures for the Ratio Ki in assay [1], in assay [2] and in assay [3] were 40, 14 and 6, respectively.
As for `CCCn1c(=O)c2[nH]c(-c3cnn(Cc4nc(-c5ccc(C#N)cc5)no4)c3)nc2n(CCC)c1=O`, the pKi at Adenosine receptor A1 was 5.89; at Adenosine receptor A2a it was under 5.30; on Adenosine receptor A3, 6.02; on Adenosine receptor A2b, 7.74.
Take `CCCn1c(=O)c2nc(-c3cnn(CC(=O)Nc4ccccc4Cl)c3)[nH]c2n(CCC)c1=O`: the Ratio Ki in assay [1] was 54; in assay [2], 68; in assay [3], 5.
For the compound `CCCn1c(=O)c2[nH]c(-c3cnn(Cc4nc(-c5cccc(OC)c5)no4)c3)nc2n(CCC)c1=O`, the negative logarithm of the Ki (pKi) is 5.66 at Adenosine receptor A1, under 5.30 at Adenosine receptor A2a, 6.22 on Adenosine receptor A3 and 7.09 at Adenosine receptor A2b.
As for `CCCn1c(=O)c2nc(-c3cnn(Cc4cc(-c5ccccc5OC)on4)c3)[nH]c2n(CCC)c1=O`, the Ratio Ki in assay [1] is 24; in assay [2], over 25; in assay [3] it was 16.
Consider `CCCn1c(=O)c2nc(-c3cnn(Cc4noc(-c5cccc(C(F)(F)F)c5)n4)c3)[nH]c2n(CCC)c1=O`, for which the results for the Ratio Ki in assay [1], in assay [2] and in assay [3] were 27, over 78 and over 93, respectively.
On to `CCCn1c(=O)c2nc(-c3cnn(Cc4nc(-c5ccccc5OC)no4)c3)[nH]c2n(CCC)c1=O`, for which the Ratio Ki was determined as 5 in assay [1], 19 in assay [2] and 23 in assay [3].
`CCCn1c(=O)c2nc(-c3cnn(Cc4cc(-c5ccc(OC)cc5)on4)c3)[nH]c2n(CCC)c1=O`: the results for the Ratio Ki in assay [1], in assay [2] and in assay [3] were 48, over 79 and 31, respectively.
For the compound `CCCn1c(=O)c2[nH]c(-c3cnn(Cc4cc(-c5ccc(C(F)(F)F)cc5)on4)c3)nc2n(CCC)c1=O`, the pKi was 5.64 on Adenosine receptor A1, 5.77 at Adenosine receptor A2a, 5.92 at Adenosine receptor A3 and 7.32 on Adenosine receptor A2b.
On the same counts, the results for `CCCn1c(=O)c2[nH]c(-c3cnn(CC(=O)Nc4ccccc4Cl)c3)nc2n(CCC)c1=O` are 6.99, 5.82, 5.92 and 7.66.
In the case of `CCCn1c(=O)c2[nH]c(-c3cnn(Cc4cc(-c5ccccc5Cl)on4)c3)nc2n(CCC)c1=O`, the negative logarithm of the Ki (pKi) at Adenosine receptor A1 is under 5.22; at Adenosine receptor A2a, 5.57; on Adenosine receptor A3 it was 5.64; on Adenosine receptor A2b it was 6.95.
For `CCCn1c(=O)c2nc(-c3cnn(Cc4noc(-c5cccc(OC)c5)n4)c3)[nH]c2n(CCC)c1=O`, the Ratio Ki was 15 in assay [1], over 37 in assay [2] and 6 in assay [3].
For `CCCn1c(=O)c2nc(-c3cnn(Cc4nc(-c5ccc(C#N)cc5)no4)c3)[nH]c2n(CCC)c1=O`, the values for the Ratio Ki in assay [1], in assay [2] and in assay [3] were 53, over 277 and 70, respectively.
In the case of `CCCn1c(=O)c2nc(-c3cnn(Cc4nc(-c5cccc(Cl)c5)no4)c3)[nH]c2n(CCC)c1=O`, the Ratio Ki in assay [1] is 15; in assay [2] it was over 156; in assay [3], 20.
Regarding `CCCn1c(=O)c2[nH]c(-c3cnn(Cc4noc(-c5ccccc5Cl)n4)c3)nc2n(CCC)c1=O`, the negative-log Ki (pKi) at Adenosine receptor A1 was 6.20; at Adenosine receptor A2a it was 5.60; on Adenosine receptor A3, 6.48; at Adenosine receptor A2b it was 7.42.
In the case of `CCCn1c(=O)c2[nH]c(-c3cnn(Cc4noc(-c5cccc(C(F)(F)F)c5)n4)c3)nc2n(CCC)c1=O`, the negative logarithm of the Ki (pKi) on Adenosine receptor A1 is under 5.22; at Adenosine receptor A2a, under 5.30; at Adenosine receptor A3, 5.74; on Adenosine receptor A2b it was 7.19.
Regarding `CCCn1c(=O)c2nc(-c3cnn(Cc4noc(-c5ccccc5C(F)(F)F)n4)c3)[nH]c2n(CCC)c1=O`, the values for the Ratio Ki in assay [1], in assay [2] and in assay [3] were 6, over 50 and 19, respectively.
Regarding `CCCn1c(=O)c2[nH]c(-c3cnn(Cc4nc(-c5ccc(C(F)(F)F)cc5)no4)c3)nc2n(CCC)c1=O`, the pKi on Adenosine receptor A1 is 5.48; on Adenosine receptor A2a it was under 5.30; at Adenosine receptor A3, 5.89; on Adenosine receptor A2b it was 7.26.
For the compound `CCCn1c(=O)c2nc(-c3cnn(Cc4nc(-c5cccc(OC)c5)no4)c3)[nH]c2n(CCC)c1=O`, the values for the Ratio Ki in assay [1], in assay [2] and in assay [3] were 7, over 60 and 26, respectively.
For `CCCn1c(=O)c2[nH]c(-c3cnn(Cc4noc(-c5ccccc5C(F)(F)F)n4)c3)nc2n(CCC)c1=O`, the negative logarithm of the Ki (pKi) was 5.72 at Adenosine receptor A1, under 5.30 at Adenosine receptor A2a, 6.21 on Adenosine receptor A3 and 7.00 on Adenosine receptor A2b.
On to `CCCn1c(=O)c2nc(-c3cnn(Cc4cc(-c5ccccc5Cl)on4)c3)[nH]c2n(CCC)c1=O`, for which the Ratio Ki was 20 in assay [1], 24 in assay [2] and over 54 in assay [3].
